{"source": "paper PMC9830638", "about": "“High-Contrast Detection of Somatostatin Receptor Subtype-2 for Fluorescence-Guided Surgery” (Molecular Pharmaceutics, 2022)", "test_system": "orthotopically implanted BON–SSTR2 tumors", "assay": "Simulated clinical workflow, PET/CT imaging in orthotopic BON–SSTR2 tumor model", "format": "in vivo, mice", "settings": "orthotopic BON–SSTR2, 7.4 MBq (0.5 nmol), 1 h after injection, n = 5", "experimental": "Mice bearing orthotopically implanted BON–SSTR2 tumors (n = 5) were injected with 7.4 MBq (200 μCi; 0.5 nmol) of ^68Ga-DOTA-TOC and underwent PET/computed tomography (CT) imaging (Albira small animal PET/CT scanner, Bruker) 1 h after injection. […] After euthanasia, tumors were harvested under white light, and the wound bed was re-imaged with NIRF. After a more thorough visual inspection of the wound bed under white light, suspicious lesions were identified and harvested with the intact organ for ex vivo imaging along with other tissues of interest. Tumors, suspicious lesions, and relevant non-tumor tissues were processed for immunohistopathological and mesoscopic imaging.\nFor CFT two-dimensional (2D) and three-dimensional (3D) reconstruction, 2D images were obtained from individual slices, and an image stack was generated to produce 3D data sets. For PET/CT imaging, region-of-interest analysis was done with Integrated PMOD software (PMOD technologies) to standardize uptake values and determine TBRs."}
{"substance": "1,4,7,10-tetraazacyclododecane-1,4,7,10-tetraacetic acid-Tyr^3-octreotide [68Ga-DOTA-TOC]", "values": [{"measurement": "mice with abnormal uptake in the abdomen (PET/CT)", "value": "4 out of 5"}]}
